Common to all, as to test: DTP human tumour cell line panel, 48 h
Assay [1] concerns SF-295 CNS.
Assay [2] deals with SF-268 CNS.
In assay [3] the test system is NCI-H522 lung.
Assay [4] deals with OVCAR-3 ovarian.
Assay [5] has as its system HCT-15 colon.
Assay [6] has as its system SK-MEL-5 melanoma.
The subject of assay [7] is NCI/ADR-RES ovarian.
Assay [8] deals with NCI-H23 lung.
For assay [9], the system named is EKVX NSCLC.
In assay [10] the test system is UACC-62 melanoma.
The subject of assay [11] is HOP-62 NSCLC.
Assay [12] concerns MCF7 breast.
Assay [13] relates to COLO 205 colon.
The subject of assay [14] is MOLT-4 leukemia.
Assay [15] relates to MDA-MB-231 breast.
Assay [16] concerns HCC-2998 colon.

By TGI is commonly meant the concentration at which net growth stops. Read a low TGI as greater sensitivity of the cells.

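Each compound was tested at five concentrations against cells in 96-well plates for 48 hours. TGI: total growth inhibition.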

For the compound `O=C(O)C(C1NCCS1)N1C(=O)c2ccccc2C1=O` (configuration not stated), the total growth inhibition concentration (TGI) in assay [1], in assay [2], in assay [3], in [4], in assay [5] and in [6] was > 100 µM each time. For the same compound, the TGI in assay [7], in [8], in assay [9], in assay [10], in assay [11] and in [12] was > 100 µM in each case. The TGI in assay [13], in assay [14] and in [15] was > 100 µM throughout.

Regarding `CCOC(=O)C1Cc2ccc(C)cc2C1=O` (configuration not stated), the total growth inhibition concentration (TGI) in assay [1], in [2], in assay [4], in assay [5], in assay [6] and in assay [7] was > 100 µM throughout. Besides, the TGI in assay [16], in [8], in assay [9], in assay [10], in assay [11] and in assay [12] was > 100 µM each time. In addition, the TGI in assay [13], in assay [14] and in assay [15] was > 100 µM throughout.

In the case of `COP(=O)(OC)[C@@](O)(c1ccccc1)[C@@H](O)[C@@H](O)c1ccccc1`, the TGI in assay [1], in assay [2], in assay [3], in assay [4], in assay [5] and in assay [6] was > 100 µM each time. The TGI was > 100 µM in assay [7]; > 100 µM in assay [8]; > 100 µM in [9]; > 100 µM in [10]; 83.8 µM in assay [12]; > 100 µM in assay [13]. Moreover, in [15], the TGI was > 100 µM.

Take `CCc1cccc(CC)c1Nc1nc(-c2ccccc2-c2ccccc2)cs1`: the total growth inhibition concentration (TGI) in [1], in assay [2], in assay [3], in [4], in assay [5] and in assay [6] was > 100 µM each time. Further, the TGI in assay [16], in assay [8], in assay [9], in [10], in assay [11] and in assay [12] was > 100 µM throughout. The TGI in [13], in assay [14] and in assay [15] was > 100 µM each time.

As for `CC(C)(C)c1cc(C(C)(C)C)c(SSc2c(C(C)(C)C)cc(C(C)(C)C)c(O)c2O)c(O)c1O`, the TGI in [2] worked out at 24.7 µM; in assay [3] it was 16.6 µM; in assay [5], 20.7 µM; in [6], 24 µM; in assay [7], 70 µM; in assay [8] it was 22.8 µM. Besides, the TGI in [9] amounted to 35.7 µM; in assay [10], 18.8 µM; in assay [12] it was 27.5 µM; in assay [13], 27.5 µM; in [14] it was 10.4 µM; in [15] it was 28 µM.

For the compound `Clc1nc(NC23CC4CC(CC(C4)C2)C3)nc(NC23CC4CC(CC(C4)C2)C3)n1`, the TGI in assay [1], in assay [2], in assay [4], in [5], in assay [6] and in [7] was > 100 µM throughout. The TGI in assay [16], in assay [8], in assay [9], in [10], in [11] and in assay [12] was > 100 µM each time. Moreover, the TGI in assay [13] was > 100 µM; in assay [14], > 100 µM; in assay [15], > 76.3 µM.

In the case of `O=C(Cn1c(C(=O)/C=C/c2ccc(Cl)c(Cl)c2)nc2ccccc21)c1ccccc1`, the TGI in assay [2] is > 100 µM; in [4], 31.9 µM; in [5] it was 91.6 µM; in [6] it was 35.4 µM; in assay [7], 73 µM; in [16], 35.8 µM. The TGI was > 100 µM in [8]; 42.8 µM in assay [9]; > 100 µM in [10]; > 100 µM in assay [11]; 82.2 µM in assay [12]; 36.2 µM in assay [13]. The TGI in assay [14] was > 100 µM; in [15], 70.5 µM.

As to `O=C(O)CNc1ncc2c(n1)-c1ccccc1OC2`, the TGI in assay [1], in [2], in assay [4], in assay [5], in assay [6] and in assay [7] was > 100 µM in each case. Also, the TGI in assay [8], in assay [9], in assay [10], in assay [11], in assay [12] and in assay [13] was > 100 µM each time. The TGI in assay [14] and in assay [15] was > 100 µM in each case.

As to `CC(=O)/C=C1/C(=O)C(CC(C)C)=C1CC(C)C`, the concentration for total growth inhibition (TGI) in [1], in [2], in assay [3], in assay [5], in [6] and in [7] was > 100 µM in each case. For the same compound, the TGI in assay [8], in [9], in assay [10], in assay [11], in assay [12] and in [13] was > 100 µM in each case. For the same compound, the TGI in assay [14] and in [15] was > 100 µM throughout.

On to `O=C(O)c1cc(-c2ccc3cc(O)c(O)cc3c2)ccc1O`, for which the TGI in [1], in [2], in assay [3], in assay [4], in [5] and in [6] was > 12.5 µM each time. Further, the TGI in [7], in [8], in assay [10], in [11], in assay [12] and in [13] was > 12.5 µM in each case. The TGI in [14] and in assay [15] was > 12.5 µM each time.

Consider `O=[N+]([O-])/C(C(Cl)=C(Cl)Cl)=C(\NCc1ccccc1)Sc1ccccc1`, for which the TGI is 41 µM in assay [1]; 57.4 µM in assay [2]; 34.5 µM in assay [4]; 35 µM in assay [5]; 69.7 µM in assay [7]; > 100 µM in assay [16]. The TGI in [8] is 40.1 µM; in assay [9], > 100 µM; in [10] it was > 100 µM; in [11] it was 57.1 µM; in assay [12], > 100 µM; in assay [13] it was 33.2 µM. The TGI in assay [14] and in assay [15] was > 100 µM each time.

Consider `Nc1nc(N)c2ncn(Cc3ccccc3CO)c2n1`, for which the TGI in [1], in assay [2], in [3], in [4], in [5] and in assay [6] was > 100 µM each time. The TGI in [7], in [8], in assay [9], in assay [10], in assay [11] and in assay [12] was > 100 µM throughout. For the same compound, the TGI in assay [13], in assay [14] and in assay [15] was > 100 µM in each case.

Turning to `COC(=O)c1ccc(C)cc1C1CN=NC12Cc1c(C)cccc1C2=O` (configuration not stated), the TGI was > 100 µM in [1]; > 100 µM in [2]; 97.4 µM in assay [3]; > 100 µM in assay [4]; > 100 µM in [5]; > 53.2 µM in [6]. The TGI in assay [7] is 81.4 µM; in assay [16], > 100 µM; in [8], > 100 µM; in assay [9], > 100 µM; in assay [10] it was > 68.7 µM; in assay [11] it was > 100 µM. The TGI in assay [13] was 42.8 µM; in assay [14], > 69.6 µM; in [15], > 100 µM.

As to `CC1(c2cccc(C(F)(F)F)c2)CC(c2cccc(C(F)(F)F)c2)=C(C#N)C(=C(C#N)C#N)N1` (configuration not stated), the TGI in assay [1] is 31 µM; in assay [2], 31.1 µM; in [4], 24.6 µM; in [5] it was 33.1 µM; in [6] it was 29 µM; in assay [7], 43 µM. In addition, the TGI in [16] worked out at 31.8 µM; in [8], 38.2 µM; in [9], 34 µM; in assay [10], 31.3 µM; in assay [11], 32.7 µM; in assay [12], 34.9 µM. In addition, the TGI in assay [13] was 30.8 µM; in [14] it was 38.5 µM; in assay [15], 40.7 µM.

`O=C1C=CC2(C=C1)O[C@H](CCc1ccccc1)[C@@H](CCc1ccccc1)O2`: the TGI in assay [1], in [2], in assay [4], in assay [5], in assay [6] and in assay [7] was > 100 µM in each case. The TGI in assay [8] was > 100 µM; in [9], 83.3 µM; in assay [10] it was > 100 µM; in assay [11], > 100 µM; in assay [12] it was > 100 µM; in assay [13] it was > 100 µM. Besides, the TGI in [14] and in [15] was > 100 µM each time.

As for `CC1(C)C2CCC1(C)C(NC(=O)COCCOCC(N)=O)C2` (configuration not stated), the concentration for total growth inhibition (TGI) in assay [1], in [2], in assay [3], in assay [4], in assay [6] and in assay [16] was > 100 µM each time. Moreover, the TGI in [8], in assay [9], in assay [10], in assay [11], in [12] and in assay [13] was > 100 µM each time. For the same compound, the TGI in [14] and in [15] was > 100 µM in each case.

On to `O=C(c1ccsc1)c1nccc2c1cnc1ccccc12`, for which the TGI in assay [1] is > 100 µM; in assay [2], > 100 µM; in [3], 62 µM; in assay [4] it was > 100 µM; in [5] it was > 100 µM; in [6] it was > 100 µM. In addition, the TGI in assay [7] was > 100 µM; in [8], > 100 µM; in [9], 88.4 µM; in [10] it was > 100 µM; in assay [11] it was > 100 µM; in assay [12] it was > 100 µM. In addition, the TGI in assay [13] is > 100 µM; in [14], 24.3 µM; in assay [15], > 100 µM.

Consider `COc1cc2c(cc1OCCCN1CCOCC1)N=C[C@@H]1CCCN1C2=O`, for which the TGI in assay [1] is 42.1 µM; in assay [2], > 100 µM; in assay [3], 3.97 µM; in [4], 8.08 µM; in assay [5], 74.2 µM; in assay [6] it was 27.4 µM. In addition, the TGI in assay [7] was > 100 µM; in assay [9], 47.1 µM; in assay [10] it was 29.2 µM; in assay [11], 62.8 µM; in [12], > 100 µM; in assay [13] it was 4.55 µM. Besides, the total growth inhibition concentration (TGI) in assay [14] and in assay [15] was > 100 µM each time.

`NNC(=O)c1cc(Cl)ccc1NC(=O)C12CC3CC(CC(C3)C1)C2`: the total growth inhibition concentration (TGI) is > 100 µM in [1]; 89.5 µM in assay [2]; > 100 µM in assay [3]; > 100 µM in assay [4]; > 100 µM in [5]; 76.5 µM in [6]. Besides, the TGI in assay [7] is > 100 µM; in assay [16], 65 µM; in assay [8], > 100 µM; in assay [10], > 100 µM; in [11] it was > 100 µM; in [12], > 100 µM. The TGI in assay [13], in assay [14] and in assay [15] was > 100 µM each time.

The values are drawn from PubChem BioAssay (NCI).
